# Square brackets hold non-standard residues; d marks the D form. Peptide text beside a SMILES is read from it.
# Key:
# T47D cells = experiment: ^DPMIα delivery cell viability assay; format: cell-based, human; conditions: 48 h incubation; presence of sera; resazurin reduction potential
# Description: A variety of cell types and cargos confirmed the potency and versatility of Phylomer CPP delivery. Different functional assays applied readouts designed to directly quantify delivery of an established biologic cargo. […] CPP_^DPMIα synthetic peptides (Supplementary Table 7 and Fig. 3a, cargo 2) reduced viability of human breast tumor cells (T47D) in the presence of sera, indicating the successful delivery of ^DPMIα into the cells (Fig. 5a).
# All cell viability studies were performed in the presence of FCS. Cells were seeded at 2.5–5 × 10^3 cells/well, depending on cell line, in 96-well plates (PAP assays: CHO-K1 at 3 × 10^3 cells/well; peptide cytotoxicity assays: CHO-K1 at 5 × 10^3 cells/well; Bouganin assay: CHO-K1 and CHO-K1/EGFR at 2.5 × 10^3 cells/well; ^DPMIα assays: T47D at 5 × 10^3 cells/well; Omomyc assays: all cell lines at 5 × 10^3 cells/well). In brief, adherent cells were allowed to adhere for 24 h prior to the addition of treatments whereas suspension cell lines were treated immediately following seeding. […] Membrane integrity was assessed by the release of LDH into the media via the CytoTox-ONE reagent (Promega). Metabolic activity was measured either by resazurin reduction potential using PrestoBlue (Life Technologies) or by ATP activity using CellTitre-Glo (Promega). […] IC50 values were calculated using Prism (version 7.0a, GraphPad).
# CHO-K1 cells = experiment: Peptide cytotoxicity, cell viability by resazurin reduction; format: cell-based; conditions: CPP alone up to 50 µM, 24 h and 48 h, presence of sera
# Description: To ensure that 1746 and 1746c27 are not innately cytotoxic, we assessed their effect on cell viability. CHO-K1 cells were treated with CPPs in the presence of sera at 24 h (Fig. 4a) and 48 h (Fig. 4b). The effects of CPPs on cellular membrane stability were assessed using a LDH enzymatic assay, measuring LDH release at 2 h (Fig. 4c) and 24 h (Fig. 4d) after peptide addition.
# All cell viability studies were performed in the presence of FCS. Cells were seeded at 2.5–5 × 10^3 cells/well, depending on cell line, in 96-well plates (PAP assays: CHO-K1 at 3 × 10^3 cells/well; peptide cytotoxicity assays: CHO-K1 at 5 × 10^3 cells/well; Bouganin assay: CHO-K1 and CHO-K1/EGFR at 2.5 × 10^3 cells/well; ^DPMIα assays: T47D at 5 × 10^3 cells/well; Omomyc assays: all cell lines at 5 × 10^3 cells/well). In brief, adherent cells were allowed to adhere for 24 h prior to the addition of treatments whereas suspension cell lines were treated immediately following seeding. Following 2–48 h incubations with treatments, cell viability was measure by a variety of methods. Membrane integrity was assessed by the release of LDH into the media via the CytoTox-ONE reagent (Promega). Metabolic activity was measured either by resazurin reduction potential using PrestoBlue (Life Technologies) or by ATP activity using CellTitre-Glo (Promega). […] IC50 values were calculated using Prism (version 7.0a, GraphPad).
# AMO-1 (plasmacytoma) = experiment: Omomyc cell viability assay (ATP activity); format: cell-based; conditions: 48 h
# Source text: (§1) Next 1746c27 was used to deliver the Omomyc[45],[46] protein cargo. This well-characterized dominant-negative protein directly binds and inhibits the transcription factor MYC. A master regulator of critical cellular processes, MYC is an intracellular oncoprotein target deemed “undruggable” using conventional biological therapeutics. Treatment with recombinant 1746c27_Omomyc (Fig. 3a, cargo 4) induced a dose-dependent decrease in cell viability in MYC-dependent blood cancer cell lines and T47D cells in the presence of sera. […] The potency of 1746c27_Omomyc was greater than small molecule inhibitors of MYC, 10058-F4 and KJ-Pyr9 (Supplementary Fig. 8).
# (§2) All cell viability studies were performed in the presence of FCS. […] Membrane integrity was assessed by the release of LDH into the media via the CytoTox-ONE reagent (Promega). Metabolic activity was measured either by resazurin reduction potential using PrestoBlue (Life Technologies) or by ATP activity using CellTitre-Glo (Promega). […] IC50 values were calculated using Prism (version 7.0a, GraphPad).
# [1] = test system: HL-60 (promyelocytic leukemia); experiment: Omomyc cell viability assay (ATP activity); format: cell-based; conditions: 48 h
# Source text: as §1, §2
# T47D (breast cancer) = experiment: Omomyc cell viability assay (ATP activity); format: cell-based, human; conditions: 48 h
# Source text: as §1, §2
# C57BL/10ScSn^mdx mice = experiment: Exon skipping in vivo by RT-PCR and Western blot; parameters: species or system mouse; conditions: five IP injections over two weeks, 4 nmoles per dose; RT-PCR / immunoblot; diaphragm, tibialis anterior, heart
# Description: Exon skipping in vivo was evaluated at the (a, c) RNA and (b) protein level in the Duchenne muscular dystrophy mouse disease model. RNA was extracted from tissues of C57BL/10ScSn^mdx mice treated with five intra-peritoneal injections of CPP_PMO cargo over two weeks at 4 nmoles per dose (injected volume increased with increased weight of the mice). Pip6, a traditional carrier CPP for peptide-oligonucleotide conjugates in the mdx disease model of DMD^9, was tested in vivo in parallel for comparison. All samples were loaded onto the gel using normalization by myosin densitometry, to enable a quantitative comparison.^10
# Tissues were sectioned (6 µm thickness) before adding lysis buffer. Otherwise exon skipping assays and RT-PCR detection were performed following the same protocols used for detection of exon skipping in vitro in myoblasts cells (see Methods of main text).
# Samples were vortexed for 10 sec, sonicated at a setting of 30/100 (Sonics sonicator) for 6 x 1 sec pulses, heated at 95 °C for 5 min and centrifuged at 14,000rpm on a Beckman microfuge for 4 min before loading. Total protein was quantitated by BCA assay (Pierce). Average total protein concentration was 2.3 µg/µl. […] Coomassie stained bands were analysed using Bio1D software and the results were used as a loading control to provide equal loading for the western gel that followed. […]
# C57BL/6J mice = experiment: Serum parameters of kidney and liver toxicity in mice; format: in vivo, mouse; conditions: 40 mg/kg/day IP for 7 days, n = 6
# Description: To examine 1746c27 toxicity in vivo, a cohort of adult male C57BL/6J mice (n = 6) were treated with the CPP. Following approved standard preliminary toxicity testing guidelines (Food and Drug Administration, FDA, and European Medicines Agency, EMA), mice were injected intraperitoneally daily for 7 days with 40 mg/kg of 1746c27. After a further 8 days the mice were culled (on day 15) and serum was extracted and used to examine kidney and liver toxicity. Urea, creatinine, aspartate transaminase (AST) and alanine transaminase (ALT) concentrations were measured. […] ALT (p = 0.054) and creatinine (p = 0.01) levels were lower compared to untreated control mice, which supports the finding of minimal toxicity.
# All mouse studies were approved by the Animal Ethics Committee of The University of Western Australia in accordance with the Australian Code of Practice for the Care and Use of Animals for Scientific Purposes (NH&MRC, 8th Edition, 2013). Studies were performed using adult male C57BL/6J mice weighing approximately 20 g. Mice were treated with 1746c27 (40 mg/kg/day intraperitoneally) for 7 days (day 1–7), followed by no treatment on days 8–15. On day 15, mice were anesthetized with intraperitoneal injection of pentobarbitone sodium (240 mg/kg), and their terminal blood collected. Serum was extracted and used to measure kidney and liver toxicity. Urea and creatinine concentration was assessed using QuantiChrom Urea and Creatinine assay kits, respectively (BioAssay Systems). Aspartate transaminase (AST) and alanine transaminase (ALT) concentration were measured using EnzyChrom Aspartate Transaminase and Alanine Transaminase assay kits, respectively (BioAssay Systems). All assays were performed as per manufacturer’s instructions, using a spectrophotometer (PowerWave XS).
Compound,IC50 (T47D cells),"cytotoxic activity, cell viability (CHO-K1 cells)","effect on cell viability, in words (AMO-1 (plasmacytoma))","effect on cell viability, in words [1]","effect on cell viability, in words (T47D (breast cancer))","exon 23 skipping in tissues, in words (C57BL/10ScSn^mdx mice)","toxicity in vivo, in words (C57BL/6J mice)",ALT Mean (C57BL/6J mice; serum day 15),AST Mean (C57BL/6J mice; serum day 15),Creatinine Mean (C57BL/6J mice; serum day 15),Urea Mean (C57BL/6J mice; serum day 15)
"CC(=O)NCC(=O)N[C@@H](CCCNC(=N)N)C(=O)N[C@@H](CCCCN)C(=O)N[C@@H](CCCCN)C(=O)N[C@@H](CCCNC(=N)N)C(=O)N[C@@H](CCCNC(=N)N)C(=O)N[C@@H](CCC(N)=O)C(=O)N[C@@H](CCCNC(=N)N)C(=O)N[C@@H](CCCNC(=N)N)C(=O)N[C@@H](CCCNC(=N)N)C(=O)NCC(=O)N[C@@H](C)C(=O)N[C@@H](CO)C(=O)N[C@@H](C(=O)N[C@H](CC(N)=O)C(=O)N[C@H](Cc1c[nH]c2ccccc12)C(=O)N[C@H](Cc1ccc(O)cc1)C(=O)N[C@H](C)C(=O)N[C@H](CC(N)=O)C(=O)N[C@H](CC(C)C)C(=O)N[C@H](CCC(=O)O)C(=O)N[C@H](CCCCN)C(=O)N[C@H](CC(C)C)C(=O)N[C@H](CC(C)C)C(=O)N[C@H](CCCNC(=N)N)C(N)=O)[C@H](C)O [TAT_^DPMIα, reference compound] (Ac-GRKKRRQRRRGAS[dT][dN][dW][dY][dA][dN][dL][dE][dK][dL][dL][dR]-NH2)",36.6 µM,,,,,,,,,,
Ac-KKKKQPPKPKKPKTQEKKKKQPPKPKR-NH2 (N-terminus and C-terminus assumed) [1746c27],,no measurable cytotoxicity,no notable effect on cell viability,no notable effect on cell viability,no notable effect on cell viability,not detected,minimal evidence of toxicity,59.73 U/L,84.98 U/L,0.33 mg/dL,50.99 mg/dL
Ac-PLKPKKPKTQEKKKKQPPKPKKPKTQEKKKKQPPKPKRGAS[dT][dN][dW][dY][dA][dN][dL][dE][dK][dL][dL][dR]-NH2 [1746_^DPMIα],9.1 µM,,,,,,,,,,

# — publication PMC6105642, “A platform for discovery of functional cell-penetrating peptides for efficient multi-cargo intracellular delivery” (Scientific Reports, 2018)
